Legend:
Type in all cases: in vivo
[1] = test system: test plants (a variety of test species); assay: Example B2 herbicidal action, post-emergence, pots in glasshouse; details: evaluated after 13 days, 100=total damage to plant, 0=no damage to plant
Description: (§1) Seeds of a variety of test species were sown in standard soil in pots. After 8 days cultivation (post-emergence) under controlled conditions in a glasshouse (at 24/16° C., day/night; 14 hours light; 65% humidity), the plants were sprayed with an aqueous spray solution derived from the formulation of the technical active ingredient in acetone/water (50:50) solution containing 0.5% Tween 20 (polyoxyethylene sorbitan monolaurate, CAS RN 9005-64-5). The test plants were then grown in a glasshouse under controlled conditions in a glasshouse (at 24/16° C., day/night; 14 hours light; 65% humidity) and watered twice daily. After 13 days, the test was evaluated (100=total damage to plant; 0=no damage to plant).

[2] = test system: Chenopodium album (CHEAL); assay: Example B3 herbicidal action, post-emergence; details: 1000 g/ha, after 13 days, 100=total damage to plant, 0=no damage to plant
Description: (§2) Seeds of a variety of test species were sown in sterilised compost in small pots. After cultivation for seven days (post-emergence) in controlled conditions in the glasshouse (at 24/16° C., day/night; 14 hours light; 65% humidity) the plants were sprayed with 1 mg of the active ingredient, formulated in 2.5 ml acetone/water (50:50) solution, which is equivalent to 1000 g/ha. Once the foliage was dry, the pots were kept in the glasshouse (at 24/16° C., day/night; 14 hours light; 65% humidity), and were watered twice daily. After 13 days the test was evaluated (100=total damage to plant, 0=no damage to plant).

[3] = test system: Digitaria sanguinalis (DIGSA); assay: Example B3 herbicidal action, post-emergence; details: 1000 g/ha, after 13 days, 100=total damage to plant, 0=no damage to plant
Description: as §2

[4] = test system: Amaranthus retroflexus (AMARE); assay: Example B3 herbicidal action, post-emergence; details: 1000 g/ha, after 13 days, 100=total damage to plant, 0=no damage to plant
Description: as §2

[5] = test system: Alopecurus myosuroides (ALOMY); assay: Example B3 herbicidal action, post-emergence; details: 1000 g/ha, after 13 days, 100=total damage to plant, 0=no damage to plant
Description: as §2

[6] = test system: Amaranthus retroflexus (AMARE); assay: Example B2 herbicidal action, post-emergence, pots in glasshouse; details: Application post-emergence, evaluated after 13 days (100=total damage to plant; 0=no damage to plant)
Description: as §1

[7] = test system: Setaria faberi (SETFA); assay: as above; details: Application post-emergence, evaluated after 13 days (100=total damage to plant; 0=no damage to plant)
Description: as §1

[8] = test system: Echinochloa crusgalli (ECHCG); assay: as above; details: Application post-emergence, evaluated after 13 days (100=total damage to plant; 0=no damage to plant)
Description: as §1

[9] = test system: Ipomea hederaceae (IPOHE); assay: as above; details: Application post-emergence, evaluated after 13 days (100=total damage to plant; 0=no damage to plant)
Description: as §1

[10] = test system: Solanum nigrum (SOLNI); assay: as above; details: Application post-emergence, evaluated after 13 days
Description: as §1

Structure (SMILES) | damage to the test plants [1] | damage to plant, Chenopodium album (CHEAL) [2] | damage to plant, Digitaria sanguinalis (DIGSA) [3] | damage to plant, Amaranthus retroflexus (AMARE) [4] | damage to plant, Alopecurus myosuroides (ALOMY) [5] | damage to plant, Amaranthus retroflexus (AMARE) [6] | damage to plant, Setaria faberi (SETFA) [7] | damage to plant, Echinochloa crusgalli (ECHCG) [8] | damage to plant, Ipomea hederaceae (IPOHE) [9] | damage to plant, Solanum nigrum (SOLNI) [10]
O=c1[nH]c2nccnc2c(O)c1-c1ccccc1 [Compound A22] | no damage |  |  |  |  |  |  |  |  | 
COc1cccc(-c2c(O)c3nccnc3[nH]c2=O)c1OC [Compound A41] |  | 6 | 6 | 0 | 3 |  |  |  |  | 
O=c1[nH]c2nccnc2c(O)c1-c1ccc(C(F)(F)F)cc1Br [Compound A43] |  | 8 | 0 | 7 | 0 |  |  |  |  | 
CC(C)(C)C(=O)Oc1c(-c2cc(F)c(Cl)cc2Cl)c(=O)[nH]c2nccnc12 [Compound B48] | no damage |  |  |  |  |  |  |  |  | 
CC(C)(C)C(=O)Oc1c(-c2ccc(C(F)(F)F)cc2Br)c(=O)[nH]c2nccnc12 [Compound B54] |  | 8 | 0 | 3 | 0 |  |  |  |  | 
CC(=O)Oc1c(-c2ccc(Cl)cc2Cl)c(=O)n(C(C)C)c2nccnc12 [Compound C7] |  | 7 | 3 | 9 | 0 |  |  |  |  | 
CCn1c(=O)c(-c2c(Cl)ccc(Cl)c2Cl)c(OC(=O)C(C)C)c2nccnc21 [Compound C107] |  | 10 | 2 | 10 | 0 |  |  |  |  | 
CCn1c(=O)c(-c2cccc(C(F)(F)F)c2Cl)c(OC(=O)C(C)(C)C)c2nccnc21 [Compound C132] |  | 8 | 0 | 10 | 0 |  |  |  |  | 
Cn1c(=O)c(-c2ccccc2)c(OC(=O)C(C)(C)C)c2nccnc21 [Compound C137] | no damage |  |  |  |  | 9 | 0 | 0 | 5 | 0
CCn1c(=O)c(-c2ccc(C(F)(F)F)cc2[N+](=O)[O-])c(OC(=O)C(C)(C)C)c2nccnc21 [Compound C141] |  | 7 | 0 | 10 | 0 |  |  |  |  | 
CCn1c(=O)c(-c2cc(-c3ccc(Cl)cc3)ccc2C)c(OC(=O)C(C)C)c2nccnc21 [Compound C156] |  | 0 | 3 | 0 | 8 |  |  |  |  | 
Cn1c(=O)c(-c2c(F)c([N+](=O)[O-])cc(F)c2Cl)c(OC(=O)C(C)(C)C)c2nccnc21 [Compound C157] |  | 8 | 0 | 6 | 0 |  |  |  |  | 
CCn1c(=O)c(-c2c(F)c([N+](=O)[O-])cc(F)c2Cl)c(OC(=O)C(C)(C)C)c2nccnc21 [Compound C158] |  | 10 | 0 | 9 | 0 |  |  |  |  | 
Cc1cccc([N+](=O)[O-])c1-c1c(OC(=O)C(C)(C)C)c2nccnc2n(C)c1=O [Compound C161] |  | 2 | 5 | 6 | 0 |  |  |  |  | 
CCn1c(=O)c(-c2cc(OC(F)(F)F)ccc2OC)c(OC(=O)C(C)(C)C)c2nccnc21 [Compound C167] |  |  |  |  |  | 10 | 2 | 5 | 5 | 9
Cn1c(=O)c(-c2ccccc2OC(F)F)c(OC(=O)C(C)(C)C)c2nccnc21 [Compound C168] |  |  |  |  |  | 10 | 2 | 3 | 5 | 8
CCn1c(=O)c(-c2ccccc2OC(F)F)c(OC(=O)C(C)(C)C)c2nccnc21 [Compound C169] |  |  |  |  |  | 9 | 0 | 0 | 7 | 9
Cc1cnc2c(OC(=O)C(C)(C)C)c(-c3c(F)ccc(F)c3Cl)c(=O)n(C)c2n1 [Compound C170] |  |  |  |  |  | 8 | 7 | 8 | 4 | 6
Cc1cc(C)c(-c2c(O)c3nccnc3n(C)c2=O)c(C)c1 [Compound D7] |  |  |  |  |  | 10 | 10 | 10 | 9 | 10
CCn1c(=O)c(-c2c(Cl)cc(OC(F)(F)F)cc2Cl)c(O)c2nccnc21 [Compound D11] |  |  |  |  |  | 10 | 9 | 10 | 10 | 10
